Measurements taken from patent US8673904B2, “Epoxide inhibitors of cysteine proteases” (The Board of Trustees of the Leland Stanford Junior …, priority 2006, dated 2014).

test system: cathepsin targets; assay: Cathepsin targets of the compounds (Table 4); type: biochemical, rat; details: cathepsin target(s) inhibited; General = all cathepsins
Description: Also included in the table for comparison are known compounds JPMOEt and JPMOH (also known as JPM-565). See Meara and Rich, J. Med. Chem. 39:3357-3366, 1996; Bogyo et al, Chem. Biol. 7:27-38, 2000; and Joyce et al., Cancer Cell 5:443-453, 2004. The table also lists cathepsin targets and measured IC50 values for specific compounds. To determine these values, 1 mg/ml of rat liver lysate was incubated with a series of concentrations of the inhibitor for 20 minutes. Then, 1 ul of a radiolabled general cathepsin probe, DCG-04, was added to the solutions and incubated for 1 hour. After fixing and drying the gel, the residual enzyme activity was measured using ImageJ software. The measurements were then transferred to GraphPad Prism 4 to calculate the IC50 values.

Row | Compound | Target
1 | CC(=O)NCCNC(=O)[C@H]1O[C@@H]1C(=O)N[C@@H](Cc1ccc(C)cc1)C(=O)N[C@@H](Cc1ccc(O)cc1)C(N)=O [Compound 1] | Cat B
2 | Cc1ccc(C[C@H](NC(=O)C2OC2C(=O)NCc2ccccc2)C(=O)N[C@@H](Cc2ccc(O)cc2)C(N)=O)cc1 (stereo partly drawn) [Compound 2] | Cat B
3 | Cc1ccc(C[C@H](NC(=O)[C@H]2O[C@@H]2C(=O)NCCc2ccccn2)C(=O)N[C@@H](Cc2ccc(O)cc2)C(N)=O)cc1 [Compound 3] | Cat B
4 | Cc1ccc(C[C@H](NC(=O)C2OC2C(=O)NCCN2CCOCC2)C(=O)N[C@@H](Cc2ccc(O)cc2)C(N)=O)cc1 (stereo partly drawn) [Compound 4] | Cat B
5 | Cc1ccc(C[C@H](NC(=O)C2OC2C(=O)NCCc2ccc(-c3ccccc3)cc2)C(=O)N[C@@H](Cc2ccc(O)cc2)C(N)=O)cc1 (stereo partly drawn) [Compound 5] | Cat B
6 | Cc1ccc(C[C@H](NC(=O)[C@H]2O[C@@H]2C(=O)NCCc2ccc(O)cc2)C(=O)N[C@@H](Cc2ccc(O)cc2)C(N)=O)cc1 [Compound 6] | Cat B
7 | Cc1ccc(C[C@H](NC(=O)[C@H]2OC2C(=O)NCCN2CCCC2)C(=O)N[C@@H](Cc2ccc(O)cc2)C(N)=O)cc1 (stereo partly drawn) [Compound 7] | Cat B
8 | Cc1ccc(C[C@H](NC(=O)[C@H]2O[C@@H]2C(=O)NCc2cccc3ccccc23)C(=O)N[C@@H](Cc2ccc(O)cc2)C(N)=O)cc1 [Compound 8] | Cat B
9 | Cc1ccc(C[C@H](NC(=O)C2OC2C(=O)NCCN2CCCCC2)C(=O)N[C@@H](Cc2ccc(O)cc2)C(N)=O)cc1 (stereo partly drawn) [Compound 9] | Cat B
10 | Cc1ccc(C[C@H](NC(=O)C2OC2C(=O)N[C@H](C)c2ccccc2)C(=O)N[C@@H](Cc2ccc(O)cc2)C(N)=O)cc1 (stereo partly drawn) [Compound 10] | Cat B
11 | Cc1ccc(C[C@H](NC(=O)C2O[C@@H]2C(=O)NN2CCN(C)CC2)C(=O)N[C@@H](Cc2ccc(O)cc2)C(N)=O)cc1 (stereo partly drawn) [Compound 11] | Cat B
12 | Cc1ccc(C[C@H](NC(=O)C2OC2C(=O)NCCCO)C(=O)N[C@@H](Cc2ccc(O)cc2)C(N)=O)cc1 (stereo partly drawn) [Compound 12] | Cat B
13 | Cc1ccc(C[C@H](NC(=O)C2OC2C(=O)NCCCCCCO)C(=O)N[C@@H](Cc2ccc(O)cc2)C(N)=O)cc1 (stereo partly drawn) [Compound 13] | Cat B
14 | CCNC(=O)C1OC1C(=O)N[C@@H](Cc1ccc(C)cc1)C(=O)N[C@@H](Cc1ccc(O)cc1)C(N)=O (stereo partly drawn) [Compound 14] | Cat B
15 | Cc1ccc(C[C@H](NC(=O)C2OC2C(=O)NCC(N)=O)C(=O)N[C@@H](Cc2ccc(O)cc2)C(N)=O)cc1 (stereo partly drawn) [Compound 15] | Cat B
16 | Cc1ccc(C[C@H](NC(=O)C2OC2C(=O)NCC(C)C)C(=O)N[C@@H](Cc2ccc(O)cc2)C(N)=O)cc1 (stereo partly drawn) [Compound 17] | Cat B
17 | CCOC(=O)C1OC1C(=O)N[C@@H](Cc1ccc(C)cc1)C(=O)N[C@@H](Cc1ccc(O)cc1)C(N)=O (stereo partly drawn) [Compound 18] | Cat B
18 | Cc1ccc(C[C@H](NC(=O)[C@H]2OC2C(=O)O)C(=O)N[C@@H](Cc2ccc(O)cc2)C(N)=O)cc1 (stereo partly drawn) [Compound 19] | Cat B
19 | CC(=O)NCCNC(=O)C1O[C@@H]1C(=O)N[C@@H](CC(C)C)C(=O)N[C@@H](Cc1ccc(O)cc1)C(N)=O (stereo partly drawn) [Compound 20] | Cat B
20 | CC(C)C[C@H](NC(=O)[C@H]1OC1C(=O)NCc1ccccc1)C(=O)N[C@@H](Cc1ccc(O)cc1)C(N)=O (stereo partly drawn) [Compound 21] | Cat B

Row | Compound | Target
21 | CC(C)C[C@H](NC(=O)C1OC1C(=O)NCCc1ccccn1)C(=O)N[C@@H](Cc1ccc(O)cc1)C(N)=O (stereo partly drawn) [Compound 22] | Cat B
22 | CC(C)C[C@H](NC(=O)C1OC1C(=O)NCCN1CCOCC1)C(=O)N[C@@H](Cc1ccc(O)cc1)C(N)=O (stereo partly drawn) [Compound 23] | Cat B
23 | CC(C)C[C@H](NC(=O)C1OC1C(=O)NCCc1ccc(-c2ccccc2)cc1)C(=O)N[C@@H](Cc1ccc(O)cc1)C(N)=O (stereo partly drawn) [Compound 24] | Cat B
24 | CC(C)C[C@H](NC(=O)[C@H]1OC1C(=O)NCCN1CCCC1)C(=O)N[C@@H](Cc1ccc(O)cc1)C(N)=O (stereo partly drawn) [Compound 26] | Cat B
25 | CC(C)C[C@H](NC(=O)[C@H]1O[C@@H]1C(=O)NCc1cccc2ccccc12)C(=O)N[C@@H](Cc1ccc(O)cc1)C(N)=O [Compound 27] | Cat B
26 | CC(C)C[C@H](NC(=O)[C@H]1OC1C(=O)NCCN1CCCCC1)C(=O)N[C@@H](Cc1ccc(O)cc1)C(N)=O (stereo partly drawn) [Compound 28] | Cat B
27 | CC(C)C[C@H](NC(=O)[C@H]1OC1C(=O)N[C@H](C)c1ccccc1)C(=O)N[C@@H](Cc1ccc(O)cc1)C(N)=O (stereo partly drawn) [Compound 29] | Cat B
28 | CC(C)C[C@H](NC(=O)C1OC1C(=O)NN1CCN(C)CC1)C(=O)N[C@@H](Cc1ccc(O)cc1)C(N)=O (stereo partly drawn) [Compound 30] | Cat B
29 | CC(C)C[C@H](NC(=O)C1OC1C(=O)NCCCCCCO)C(=O)N[C@@H](Cc1ccc(O)cc1)C(N)=O (stereo partly drawn) [Compound 32] | Cat B
30 | CCNC(=O)C1OC1C(=O)N[C@@H](CC(C)C)C(=O)N[C@@H](Cc1ccc(O)cc1)C(N)=O (stereo partly drawn) [Compound 33] | Cat B
31 | CC(C)C[C@H](NC(=O)C1OC1C(=O)NCC(N)=O)C(=O)N[C@@H](Cc1ccc(O)cc1)C(N)=O (stereo partly drawn) [Compound 34] | Cat B
32 | CC(C)C[C@H](NC(=O)[C@H]1OC1C(=O)NCC(=O)O)C(=O)N[C@@H](Cc1ccc(O)cc1)C(N)=O (stereo partly drawn) [Compound 35] | Cat B
33 | CC(C)CNC(=O)C1OC1C(=O)N[C@@H](CC(C)C)C(=O)N[C@@H](Cc1ccc(O)cc1)C(N)=O (stereo partly drawn) [Compound 36] | Cat B
34 | CC(C)C[C@H](NC(=O)C1OC1C(=O)N[C@@H](C)c1ccccc1)C(=O)N[C@@H](Cc1ccc(O)cc1)C(N)=O (stereo partly drawn) [Compound 37] | Cat B
35 | CC(C)C[C@H](NC(=O)C1OC1C(=O)NCCO)C(=O)N[C@@H](Cc1ccc(O)cc1)C(N)=O (stereo partly drawn) [Compound 38] | Cat B
36 | CC(=O)NCCNC(=O)C1OC1C(=O)N[C@@H](CC(C)C)C(=O)N[C@@H](Cc1ccc(O)cc1)C(N)=O (stereo partly drawn) [Compound 41] | Cat B
37 | CC(C)C[C@H](NC(=O)[C@@H]1O[C@H]1C(=O)NCc1ccccc1)C(=O)N[C@@H](Cc1ccc(O)cc1)C(N)=O [Compound 42] | Cat B
38 | CC(C)C[C@H](NC(=O)C1O[C@H]1C(=O)NCCc1ccccn1)C(=O)N[C@@H](Cc1ccc(O)cc1)C(N)=O (stereo partly drawn) [Compound 43] | Cat B
39 | CC(C)C[C@H](NC(=O)C1OC1C(=O)NCCc1ccc(-c2ccccc2)cc1)C(=O)N[C@@H](Cc1ccc(O)cc1)C(N)=O (stereo partly drawn) [Compound 45] | Cat B
40 | CC(C)C[C@H](NC(=O)[C@@H]1O[C@H]1C(=O)NCc1cccc2ccccc12)C(=O)N[C@@H](Cc1ccc(O)cc1)C(N)=O [Compound 48] | Cat B

Row | Compound | Target
41 | CC(C)C[C@H](NC(=O)C1O[C@H]1C(=O)NCCN1CCCCC1)C(=O)N[C@@H](Cc1ccc(O)cc1)C(N)=O (stereo partly drawn) [Compound 49] | Cat B
42 | CC(C)C[C@H](NC(=O)C1OC1C(=O)N[C@H](C)c1ccccc1)C(=O)N[C@@H](Cc1ccc(O)cc1)C(N)=O (stereo partly drawn) [Compound 50] | Cat B
43 | CC(C)C[C@H](NC(=O)C1O[C@H]1C(=O)NCCCCCCO)C(=O)N[C@@H](Cc1ccc(O)cc1)C(N)=O (stereo partly drawn) [Compound 53] | Cat B
44 | CC(C)CNC(=O)C1OC1C(=O)N[C@@H](CC(C)C)C(=O)N[C@@H](Cc1ccc(O)cc1)C(N)=O (stereo partly drawn) [Compound 57] | Cat B
45 | CC(C)C[C@H](NC(=O)C1OC1C(=O)N[C@@H](C)c1ccccc1)C(=O)N[C@@H](Cc1ccc(O)cc1)C(N)=O (stereo partly drawn) [Compound 58] | Cat B
46 | CCOC(=O)C1OC1C(=O)N[C@@H](CC(C)C)C(=O)N[C@@H](Cc1ccc(O)cc1)C(N)=O (stereo partly drawn) [Compound 59] | Cat B
47 | CC(C)C[C@H](NC(=O)[C@H]1OC1C(=O)NCCc1ccc(O)cc1)C(=O)NCCN1CCCCC1 (stereo partly drawn) [Compound 67] | Cat B
48 | CCOC(=O)C1OC1C(=O)N(CC(=O)N[C@@H](Cc1ccc(O)cc1)C(N)=O)CC(C)C (stereo partly drawn) [Compound 103] | Cat B
49 | CCC[C@H](NC(=O)[C@H]1O[C@@H]1C(=O)OCC)C(=O)NCc1cccc2ccccc12 [Compound 105] | General
50 | CCC[C@H](NC(=O)C1O[C@@H]1C(=O)NCCc1ccc(-c2ccccc2)cc1)C(=O)NCCc1ccccn1 (stereo partly drawn) [Compound 106] | Cat B
51 | CCC[C@H](NC(=O)[C@H]1O[C@@H]1C(=O)NCCc1ccc(O)cc1)C(=O)NCc1cccc2ccccc12 [Compound 111] | Cat Z
52 | CCC[C@H](NC(=O)[C@H]1O[C@@H]1C(=O)O)C(=O)NCc1cccc2ccccc12 [Compound 114] | General
53 | CCC[C@H](NC(=O)[C@@H]1O[C@H]1C(=O)O)C(=O)NCc1cccc2ccccc12 [Compound 115] | Cat Z
54 | CCOC(=O)C1OC1C(=O)N[C@@H](Cc1ccc(C)cc1)C(=O)NCc1cccc2ccccc12 (stereo partly drawn) [Compound 119] | Cat Z
55 | CCC[C@H](NC(=O)C1O[C@@H]1C(=O)NCCc1ccc(O)cc1)C(=O)NCCc1ccccn1 (stereo partly drawn) [Compound 120] | Cat B
56 | Cc1ccc(C[C@H](NC(=O)C2O[C@@H]2C(=O)NCC(=O)O)C(=O)NCc2cccc3ccccc23)cc1 (stereo partly drawn) [Compound 121] | Cat Z
57 | CCOC(=O)[C@H]1O[C@@H]1C(=O)N[C@@H](Cc1ccc(C)cc1)C(=O)NCc1cccc2ccccc12 [Compound 122] | Cat Z
58 | CCC[C@H](NC(=O)C1O[C@@H]1C(=O)OCC)C(=O)NCCc1ccccn1 (stereo partly drawn) [Compound 123] | General
59 | CCC[C@H](NC(=O)[C@@H]1OC1C(=O)OCC)C(=O)NCCc1ccccn1 (stereo partly drawn) [Compound 124] | General
60 | CCOC(=O)C1O[C@H]1C(=O)N[C@@H](Cc1ccc(C)cc1)C(=O)NCCc1ccccn1 (stereo partly drawn) [Compound 126] | General
